Measurements reported in ChEMBL document CHEMBL1151468, “Selection of SHV extended-spectrum-beta-lactamase-dependent cefotaxime and ceftazidime resistance in Klebsiella pneumoniae requires a plasmid-borne blaSHV gene” (2008).
The source made the active and inactive calls.

Experiments:
Klebsiella pneumoniae [1] = test: Antibacterial activity against ESBL-negative Klebsiella pneumoniae isolate 113 at 1 ug/ml by Etest; type: functional, organism-based
Klebsiella pneumoniae [2] = test: Antibacterial activity against ESBL-negative Klebsiella pneumoniae isolate 114 at 1 ug/ml by Etest; type: functional, organism-based
Klebsiella pneumoniae [3] = test: Antibacterial activity against ESBL-negative Klebsiella pneumoniae isolate 106 at 1 ug/ml by Etest; type: functional, organism-based
Klebsiella pneumoniae [4] = test: Antibacterial activity against ESBL-negative Klebsiella pneumoniae isolate 102 at 1 ug/ml by Etest; type: functional, organism-based
Klebsiella pneumoniae [5] = test: Antibacterial activity against ESBL-negative Klebsiella pneumoniae isolate 104 by Etest; type: functional
Klebsiella pneumoniae [6] = test: Antibacterial activity against ESBL-negative Klebsiella pneumoniae isolate 30 by Etest; type: functional
Klebsiella pneumoniae [7] = test: Antibacterial activity against ESBL-negative Klebsiella pneumoniae isolate 106 by Etest; type: functional
Klebsiella pneumoniae [8] = test: Antibacterial activity against ESBL-negative Klebsiella pneumoniae isolate 108 by Etest; type: functional
Klebsiella pneumoniae [9] = test: Antibacterial activity against ESBL-positive Klebsiella pneumoniae isolate 110 having upstream IS26 insertion by Etest; type: functional
Klebsiella pneumoniae [10] = test: Antibacterial activity against ESBL-positive Klebsiella pneumoniae isolate 121 having upstream IS26 insertion by Etest; type: functional
Klebsiella pneumoniae [11] = test: Antibacterial activity against ESBL-positive Klebsiella pneumoniae isolate 119 having blaSHV promoter sequence with IS26 insertion by Etest; type: functional
Klebsiella pneumoniae [12] = test: Antibacterial activity against ESBL-negative Klebsiella pneumoniae isolate 105 by Etest; type: functional
Klebsiella pneumoniae [13] = test: Antibacterial activity against ESBL-positive Klebsiella pneumoniae isolate J4 having blaSHV promoter sequence with IS26 insertion by Etest; type: functional
Klebsiella pneumoniae [14] = test: Antibacterial activity against ESBL-positive Klebsiella pneumoniae isolate 120 having upstream IS26 insertion by Etest; type: functional
Klebsiella pneumoniae [15] = test: Antibacterial activity against ESBL-positive Klebsiella pneumoniae isolate K2 having blaSHV promoter sequence with IS26 insertion by Etest; type: functional
Klebsiella pneumoniae [16] = test: Antibacterial activity against ESBL-negative Klebsiella pneumoniae isolate M1 by Etest; type: functional
Klebsiella pneumoniae [17] = test: Antibacterial activity against ESBL-positive Klebsiella pneumoniae isolate J5 having blaSHV promoter sequence with IS26 insertion by Etest; type: functional
Klebsiella pneumoniae [18] = test: Antibacterial activity against ESBL-negative Klebsiella pneumoniae isolate 115 by Etest; type: functional
Klebsiella pneumoniae [19] = test: Antibacterial activity against ESBL-negative Klebsiella pneumoniae isolate 107 by Etest; type: functional
Klebsiella pneumoniae [20] = test: Antibacterial activity against ESBL-negative Klebsiella pneumoniae isolate 113 by Etest; type: functional
Klebsiella pneumoniae [21] = test: Antibacterial activity against ESBL-negative Klebsiella pneumoniae isolate 85 by Etest; type: functional
Klebsiella pneumoniae [22] = test: Antibacterial activity against ESBL-negative Klebsiella pneumoniae isolate 116 by Etest; type: functional
Klebsiella pneumoniae [23] = test: Antibacterial activity against ESBL-negative Klebsiella pneumoniae isolate 114 by Etest; type: functional
Klebsiella pneumoniae [24] = test: Antibacterial activity against ESBL-negative Klebsiella pneumoniae isolate 109 by Etest; type: functional
Klebsiella pneumoniae [25] = test: Antibacterial activity against ESBL-negative Klebsiella pneumoniae isolate 102 by Etest; type: functional

CC(C)(O/N=C(\C(=O)N[C@@H]1C(=O)N2C(C(=O)[O-])=C(C[n+]3ccccc3)CS[C@H]12)c1csc(N)n1)C(=O)O
active: Activity (Klebsiella pneumoniae [1]) | Activity (Klebsiella pneumoniae [2]) | Activity (Klebsiella pneumoniae [3]) | Activity (Klebsiella pneumoniae [4])

CO/N=C(\C(=O)N[C@@H]1C(=O)N2C(C(=O)O)=C(COC(C)=O)CS[C@H]12)c1csc(N)n1 [CEFOTAXIME]
> 16 µg/mL: MIC (Klebsiella pneumoniae [6]) | MIC (Klebsiella pneumoniae [7]) | MIC (Klebsiella pneumoniae [9]) | MIC (Klebsiella pneumoniae [10]) | MIC (Klebsiella pneumoniae [11]) | MIC (Klebsiella pneumoniae [12]) | MIC (Klebsiella pneumoniae [13]) | MIC (Klebsiella pneumoniae [14]) | MIC (Klebsiella pneumoniae [15]) | MIC (Klebsiella pneumoniae [17]) | MIC (Klebsiella pneumoniae [20]) | MIC (Klebsiella pneumoniae [21]) | MIC (Klebsiella pneumoniae [22]) | MIC (Klebsiella pneumoniae [23]) | MIC (Klebsiella pneumoniae [24])
3 µg/mL: MIC (Klebsiella pneumoniae [5]) | MIC (Klebsiella pneumoniae [25])
0.5 µg/mL: MIC (Klebsiella pneumoniae [19])
8 µg/mL: MIC (Klebsiella pneumoniae [18])
4 µg/mL: MIC (Klebsiella pneumoniae [16])
6 µg/mL: MIC (Klebsiella pneumoniae [8])
